Laboratory results: ChEMBL document CHEMBL1909046, “DrugMatrix in vitro pharmacology data”

Key:
[1] = biological target: T1, Polyunsaturated fatty acid lipoxygenase ALOX15 (Oryctolagus cuniculus, UniProt P12530); experiment: biochemical; assay type: tissue-based, Reticulocytes; conditions: reticulocytes;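 also: inhibition of 15-lipoxygenase enzyme activity measured with linoleic acid as the substrate; in other assays of this panel Not Active means under 50% inhibition at 10 µM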
T1 sequence (P12530 whole entry): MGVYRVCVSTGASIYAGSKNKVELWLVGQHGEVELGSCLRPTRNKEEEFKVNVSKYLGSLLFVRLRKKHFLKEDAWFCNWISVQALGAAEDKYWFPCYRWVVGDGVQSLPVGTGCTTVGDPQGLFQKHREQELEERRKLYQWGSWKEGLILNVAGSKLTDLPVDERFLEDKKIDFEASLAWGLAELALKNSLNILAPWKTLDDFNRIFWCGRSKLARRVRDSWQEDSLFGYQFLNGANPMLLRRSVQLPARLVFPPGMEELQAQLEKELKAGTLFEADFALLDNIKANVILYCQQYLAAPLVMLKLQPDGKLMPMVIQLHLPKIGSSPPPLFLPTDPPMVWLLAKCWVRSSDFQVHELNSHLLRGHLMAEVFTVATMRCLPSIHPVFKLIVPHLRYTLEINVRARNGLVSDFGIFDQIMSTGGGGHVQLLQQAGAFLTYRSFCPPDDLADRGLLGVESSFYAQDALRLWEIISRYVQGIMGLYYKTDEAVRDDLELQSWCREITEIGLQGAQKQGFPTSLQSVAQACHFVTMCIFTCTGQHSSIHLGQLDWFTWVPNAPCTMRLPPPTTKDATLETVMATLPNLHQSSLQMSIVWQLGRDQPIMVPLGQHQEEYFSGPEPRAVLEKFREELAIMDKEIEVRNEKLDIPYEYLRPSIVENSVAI

[2] = biological target: T2, Adenosine receptor A1 (Homo sapiens, UniProt P30542); assay type: cell membranes, CHO, Membrane; conditions: cho;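 also: radioligand binding assay at the adenosine A1 receptor, with DPCPX serving as the labelled ligand; in other assays of this panel Not Active means under 50% inhibition at 10 µM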
T2 sequence (P30542 whole entry): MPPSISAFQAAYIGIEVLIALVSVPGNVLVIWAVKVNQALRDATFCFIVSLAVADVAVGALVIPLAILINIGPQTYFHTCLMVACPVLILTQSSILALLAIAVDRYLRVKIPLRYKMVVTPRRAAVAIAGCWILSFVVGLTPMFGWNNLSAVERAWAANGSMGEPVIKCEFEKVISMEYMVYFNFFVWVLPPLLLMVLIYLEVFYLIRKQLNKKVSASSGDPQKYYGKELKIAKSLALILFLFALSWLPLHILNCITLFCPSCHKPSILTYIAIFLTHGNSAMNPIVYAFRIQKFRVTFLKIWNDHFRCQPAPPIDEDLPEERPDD

[3] = biological target: Mu-type opioid receptor (Homo sapiens, UniProt P35372); experiment: DRUGMATRIX: Opiate mu (OP3, MOP) radioligand binding (ligand: [3H] Diprenorphine); assay type: cell membranes, CHO-K1, Membrane; conditions: cho-k1; Not Active = under 50% inhibition at 10 µM
Sequence of Mu-type opioid receptor (P35372 whole entry): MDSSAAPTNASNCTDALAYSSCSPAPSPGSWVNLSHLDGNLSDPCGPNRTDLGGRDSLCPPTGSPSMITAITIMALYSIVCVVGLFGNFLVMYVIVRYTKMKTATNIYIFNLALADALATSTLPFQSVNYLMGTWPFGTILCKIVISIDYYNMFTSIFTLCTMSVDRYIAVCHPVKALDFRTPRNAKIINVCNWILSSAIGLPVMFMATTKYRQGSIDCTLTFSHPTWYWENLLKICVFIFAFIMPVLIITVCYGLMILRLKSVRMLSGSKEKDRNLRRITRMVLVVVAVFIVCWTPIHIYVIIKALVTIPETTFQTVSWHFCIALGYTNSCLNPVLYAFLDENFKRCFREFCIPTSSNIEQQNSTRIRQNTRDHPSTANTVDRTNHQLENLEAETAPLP

[4] = DRUGMATRIX: Sodium/nucleoside co-transporter radioligand binding (ligand: nitrobenzylthioinosine); assay type: cell membranes, Cavia porcellus, Dunkin-Hartley, Cerebral cortex, Membrane; conditions: Not Active = under 50% inhibition at 10 µM
[5] = biological target: T3, C-C chemokine receptor type 4 (Homo sapiens, UniProt P51679); assay type: cell membranes, Membrane; conditions: chem-1; also: in other assays of this panel Not Active means under 50% inhibition at 10 µM
T3 sequence (P51679 whole entry): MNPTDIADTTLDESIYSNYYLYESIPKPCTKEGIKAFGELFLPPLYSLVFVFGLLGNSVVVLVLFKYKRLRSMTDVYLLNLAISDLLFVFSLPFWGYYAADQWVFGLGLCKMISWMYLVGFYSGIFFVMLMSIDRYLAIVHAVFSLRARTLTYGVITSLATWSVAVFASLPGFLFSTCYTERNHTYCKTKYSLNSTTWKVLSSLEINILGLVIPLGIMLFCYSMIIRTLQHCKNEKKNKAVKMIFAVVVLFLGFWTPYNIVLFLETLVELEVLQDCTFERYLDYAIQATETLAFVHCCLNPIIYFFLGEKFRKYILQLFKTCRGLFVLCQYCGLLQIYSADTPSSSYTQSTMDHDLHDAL

[6] = biological target: D(1A) dopamine receptor (Homo sapiens, UniProt P21728); experiment: DRUGMATRIX: Dopamine D1 radioligand binding (ligand: [3H] SCH-23390); assay type: cell membranes, CHO, Membrane; conditions: Not Active = under 50% inhibition at 10 µM
Sequence of D(1A) dopamine receptor (P21728 whole entry): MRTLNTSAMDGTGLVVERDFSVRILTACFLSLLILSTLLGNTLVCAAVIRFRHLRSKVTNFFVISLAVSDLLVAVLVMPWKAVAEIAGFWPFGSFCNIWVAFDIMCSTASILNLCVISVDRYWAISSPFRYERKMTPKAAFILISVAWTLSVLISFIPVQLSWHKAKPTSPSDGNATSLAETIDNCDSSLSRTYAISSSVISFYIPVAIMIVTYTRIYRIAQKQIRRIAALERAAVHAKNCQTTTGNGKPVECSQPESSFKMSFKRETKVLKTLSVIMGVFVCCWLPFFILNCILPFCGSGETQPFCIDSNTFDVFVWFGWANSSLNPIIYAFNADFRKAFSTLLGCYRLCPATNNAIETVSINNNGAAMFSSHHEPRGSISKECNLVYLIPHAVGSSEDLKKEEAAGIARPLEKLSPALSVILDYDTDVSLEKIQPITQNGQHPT

SMILES	IC50 [1]	IC50 [2]	IC50 [3]	IC50 [4]	Ki [4]	IC50 [5]	IC50 ([6]; cho)	IC50 ([6]; read-out: IC50) [nM]	Ki ([6]; read-out: Ki) [nM]
CCCCC1=NC2(CCCC2)C(=O)N1Cc1ccc(-c2ccccc2-c2nnn[nH]2)cc1 [IRBESARTAN]	Not Active	Not Active	Not Active	Not Active	Not Active	Not Active	Not Active		
CN1CCC(=C2c3ccccc3CC(=O)c3sccc32)CC1 [KETOTIFEN]	Not Active	Not Active	Not Active	Not Active	Not Active	Not Active		872	436
N[C@@H](Cn1ccc(=O)c(O)c1)C(=O)O [L-MIMOSINE]	Not Active	Not Active	Not Active	Not Active	Not Active	Not Active	Not Active		
C[N+](C)(C)C[C@H](O)CC(=O)[O-] [LEVOCARNITINE]	Not Active	Not Active	Not Active	Not Active	Not Active	Not Active	Not Active		
C[C@H]1COc2c(N3CCN(C)CC3)c(F)cc3c(=O)c(C(=O)O)cn1c23.C[C@H]1COc2c(N3CCN(C)CC3)c(F)cc3c(=O)c(C(=O)O)cn1c23.O [LEVOFLOXACIN]	Not Active	Not Active	Not Active	Not Active	Not Active	Not Active	Not Active		
CCn1cc(C(=O)O)c(=O)c2cc(F)c(N3CCNC(C)C3)c(F)c21 (stereo not given) [LOMEFLOXACIN]	Not Active	Not Active	Not Active	Not Active	Not Active	Not Active	Not Active		
CN1CCCC(CN2c3ccccc3Sc3ccccc32)C1 (stereo not given) [MEPAZINE]	Not Active	Not Active	Not Active	Not Active	Not Active	Not Active	Not Active		
Cc1cccc(C)c1NC(=O)C1CCCCN1C (stereo not given) [MEPIVACAINE]	Not Active	Not Active	Not Active	Not Active	Not Active	Not Active	Not Active		
CN(C)C(=N)NC(=N)N [METFORMIN]	Not Active	Not Active	Not Active	Not Active	Not Active	Not Active	Not Active		
CC(C)(C)NCC(O)COc1cccc2c1CC(O)C(O)C2 (stereo not given) [NADOLOL]	Not Active	Not Active	Not Active	Not Active	Not Active	Not Active	Not Active		
C[C@@H]1C/C=C/C=C/C=C/C=C/[C@H](O[C@@H]2O[C@H](C)[C@@H](O)[C@H](N)[C@@H]2O)C[C@@H]2O[C@](O)(C[C@@H](O)C[C@H]3O[C@@H]3/C=C/C(=O)O1)C[C@H](O)[C@H]2C(=O)O [NATAMYCIN]	Not Active	Not Active	Not Active	Not Active	Not Active	Not Active	Not Active		
CN(C)C(=O)Oc1cccc([N+](C)(C)C)c1.[Br-] [NEOSTIGMINE BROMIDE]	Not Active	Not Active	Not Active	Not Active	Not Active	Not Active	Not Active		
NC(=O)c1cccnc1 [NIACINAMIDE]	Not Active	Not Active	Not Active	Not Active	Not Active	Not Active	Not Active		
CS(=O)(=O)Nc1ccc([N+](=O)[O-])cc1Oc1ccccc1 [NIMESULIDE]	Not Active	Not Active	Not Active	Not Active	Not Active	Not Active	Not Active		
CN1C(=O)CN=C(c2ccccc2)c2cc([N+](=O)[O-])ccc21 [NIMETAZEPAM]	Not Active	Not Active	Not Active	Not Active	Not Active	Not Active	Not Active		
COc1ccc2c(c1OC)C(=O)O[C@@H]2[C@H]1c2c(cc3c(c2OC)OCO3)CCN1C [NOSCAPINE]	Not Active	Not Active	Not Active	Not Active	Not Active	Not Active	Not Active		
NC(=O)N1c2ccccc2CC(=O)c2ccccc21 [OXCARBAZEPINE]	Not Active	Not Active	Not Active	Not Active	Not Active	Not Active	Not Active		
COc1ccnc(C[S+]([O-])c2nc3ccc(OC(F)F)cc3[nH]2)c1OC (stereo not given) [PANTOPRAZOLE]	Not Active	Not Active	Not Active	Not Active	Not Active	Not Active	Not Active		
N=C(N)c1ccc(OCCCCCOc2ccc(C(=N)N)cc2)cc1 [PENTAMIDINE]	Not Active	Not Active	Not Active	Not Active	Not Active	Not Active	Not Active		
NNCCc1ccccc1 [PHENELZINE]	Not Active	Not Active	Not Active	Not Active	Not Active	Not Active	Not Active		
CCc1ccc(CCOc2ccc(CC3SC(=O)NC3=O)cc2)nc1 (stereo not given) [PIOGLITAZONE]	Not Active	Not Active	Not Active	Not Active	Not Active	Not Active	Not Active		
CCCNC(C)C(=O)Nc1ccccc1C (stereo not given) [PRILOCAINE]	Not Active	Not Active	Not Active	Not Active	Not Active	Not Active	Not Active		
CCN(CC)CCNC(=O)c1ccc(N)cc1 [PROCAINAMIDE]	Not Active	Not Active	Not Active	Not Active	Not Active	Not Active	Not Active		
CCN(CC)CCCC(C)Nc1c2ccc(Cl)cc2nc2ccc(OC)cc12 (stereo not given) [QUINACRINE]	Not Active	Not Active	Not Active	Not Active	Not Active	Not Active	Not Active		
C[C@]12C=CC(=O)C=C1CC[C@H]1[C@@H]3C[C@@H](O)[C@](O)(C(=O)CO)[C@@]3(C)C[C@H](O)[C@@]12F [TRIAMCINOLONE]	Not Active	Not Active	Not Active	Not Active	Not Active	Not Active	Not Active		
CC[C@]1(O)C[C@@H]2CN(CCc3c([nH]c4ccccc34)[C@@](C(=O)OC)(c3cc4c(cc3OC)N(C)[C@H]3[C@@](O)(C(N)=O)[C@H](O)[C@]5(CC)C=CCN6CC[C@]43[C@@H]65)C2)C1 [VINDESINE]	Not Active	Not Active	Not Active	Not Active	Not Active	Not Active	Not Active		
CCN(C(C)=O)c1cccc(-c2ccnc3c(C#N)cnn23)c1 [ZALEPLON]	Not Active	Not Active	Not Active	Not Active	Not Active	Not Active	Not Active		
